Patent publication US11986790B2, “Method for preparing microcapsules” (LG Household & Health Care Ltd., priority 2018, dated 2024)
≈ marks a conversion by molar mass, not a printed value.

Experiment: Water solubility of acrylic monomers
Type: physicochemical
Conditions: 25 °C
Excerpt: Specific examples of such acrylic monomers may include one or more selected from the group consisting of dipropyleneglycol diacrylate, diethyleneglycol diacrylate, and tetraethyleneglycol dimethacrylate, as shown in the following Table 1.

solubility (Table 1, room temperature of 25° C.): 52 to 53 mg/mL (≈ 157 to 160 mM) | solubility (stated in the example text for the monomer used): 52 mg/mL (≈ 157 mM)
Structure (SMILES): C=C(C)C(=O)OCCOCCOCCOCCOC(=O)C(=C)C [Tetraethylene glycol Dimethacrylate]
